Measured values taken from patent US10525030B2 (priority 2013, dated 2020).

Tested on: lithium-pilocarpine model of temporal lobe epilepsy
Experiment: Neuroprotection activity using the lithium-pilocarpine model of temporal lobe epilepsy
Assay type: in vivo, Male Sprague-Dawley rats
Details: rats after Li-pilocarpine
Protocol: Male Sprague-Dawley rats (purchased from Orient Bio Inc. Korea) of body weight 175-230 g were used for these studies and housed 4 rats per cage for 4-5 days. On the day prior to status epilepsy (SE), rats received 127 mg/kg lithium chloride (Sigma, St. Louis, Mo., U.S.A.) intraperitoneal (i.p.). Approximately 18-20 h following this treatment, rats were given an i.p. injection of 43 mg/kg pilocarpine (Sigma). An i.p. injection of 2 mg/kg methyl-scopolamine (Sigma) was administered 30 min prior to pilocarpine to block the effects of the muscarinic agonist on peripheral cholinergic receptors. The effects of various dose compound (or example) 1, 65 and 67, dissolved in 30% Poly Ethylene Glycol 400 (Acros Organics, Geel, Belgium) were studied at 30 min after SE onset. The drugs were administered i.p. in a volume of 2 ul/g body weight. Pharmacological effects of all the test materials were evaluated to compared test groups (n=8) with a control group (n=8). Control group was administrated vehicle, only. All animals were kept for 2 weeks to look at the mortality and quantification of cell densities was performed 14 days after SE in test groups and control rats not subjected to SE. The animals were deeply anesthetized by injection lumpun plus zoletile, 7:3 (v/v) and perfused transcardially with 150 ml of ice-cold 0.01 M phosphate buffer followed by 250 ml of freshly prepared ice-cold 4% paraformaldehyde (PFA) in 0.1 M phosphate buffer, pH 7.4. The brains were removed and postfixed in the same fixative for an additional 22˜24 h at 4° C., and then transferred to 30% sucrose for cryoprotection until the samples were precipitated. Brains were frozen in methyl butane with dry ice and stored at −80° C. Serial coronal […] slices were cut in a cryostat (Microtome HM 1850, Leica, Germany) and put the sections onto the slides, and air-dried before thionine staining. Every fifth section was selected for morphometric analysis.
Neuronal density quantification was performed automatically with the MCID Elite software (Interfocus Ltd, Linton, UK) by counting the number of neurons present in a defined area of the structure of interest (dorsal hippocampus—CA1, CA3, DZ) and carried out with a microscopic enlargement of 200- or 400-fold. Countings were performed twice on each side in each region by a single observer unaware of animal's treatment and averaged. In each structure, the mean and minimal surface area of the neurons were determined in order to count only neurons and exclude glial cells with smaller cell bodies. (Ref., Jennifer François, Katuschia Germe, Arielle Ferrandon, Estelle Koning, Astrid Nehlig (2011) Carisbamate has powerful disease-modifying effects in the lithium-pilocarpine model of temporal lobe epilepsy, Neuropharmacology 61: 313˜328)
Data were expressed as mean±sem. Statistical analysis of difference between groups was evaluated by ANOVA followed by Dunnett's test or Bonferroni test as a post hoc analysis using Statistica (Statsoft, Inc., USA). Difference was considered statistically significant when the p value was less than 0.05.

SMILES	survival rate (30 mg/kg i.p. 30 min after SE onset, kept 2 weeks (FIG. 5)) [%]	survival rate (120 mg/kg i.p. 30 min after SE onset, kept 2 weeks (FIG. 5)) [%]	survival rate (5 mg/kg i.p. 30 min after SE onset, kept 2 weeks (FIG. 4)) [%]	survival rate (25 mg/kg i.p. 30 min after SE onset, kept 2 weeks (FIG. 4)) [%]	survival rate (50 mg/kg i.p. 30 min after SE onset, kept 2 weeks (FIG. 4)) [%]
CC[C@H](OC(N)=O)[C@@H](O)c1ccccc1I [Compound 67, 1-(2-iodophenyl)-(S)-1-hydroxybutyl-(S)-2-carbamate]	25	100			
C[C@H](OC(N)=O)[C@@H](O)c1ccccc1I [Compound 65, 1-(2-iodophenyl)-(S)-1-hydroxypropyl-(S)-2-carbamate]			50	62.5	100
